Experimental data taken from patent publication US6355799B1, “Substituted benzene compounds, process for their preparation, and herbicidal and defoliant compositions containing them” (ISK Americas Incorporated, priority 1997, dated 2002).
Read-outs that look alike come from different tables or passages of the source.

How the values were obtained:
Format in all cases: in vivo
[1] = test system: common ragweed (Ambrosia artemisizfolia L., AMBEL); experiment: Pre-emerge test, greenhouse herbicide activity screening; conditions: for Pre-emerge Herbicidal Activity AMBEL (phytotoxicity rating, scale 0-100): rated 14 days after application, 0 = no damage, 100 = complete death
Summary of the method: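 Plants grown in 10 cm pots of sandy loam mix received acetone-dissolved compounds through a moving flat-fan nozzle. Doses ranged from 15 to 1000 g ai/ha. Pre-emerge pots were seeded one day earlier, post-emerge pots 8–21 days earlier. Fourteen days on, each pot was graded 0–100 for damage.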

[2] = test system: large crabgrass (Digitaria sanguinalis, DIGSA); experiment: Post-emerge test, greenhouse herbicide activity screening; conditions: for pest or weed control at 63 g/ha / pest or weed control at 250 g/ha: Digitaria sanguinalis, post-emergence, 336 h, read-out: Post-emerge Herbicidal Activity DIGSA; for phytotoxicity rating DIGSA: rating scale 0-100
Summary of the method: (§1)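 Fourteen days after spraying, crop and weed injury was graded visually from 0, no effect, to 100, every plant dead. Test substances were dissolved in acetone and applied at 15–1000 g ai/ha with a flat-fan nozzle. Application was either pre-emergence, one day after sowing, or post-emergence at the 2–3 leaf stage.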

[3] = test system: redroot pigweed (Amaranthus retroflexus, AMARE); experiment: as above; conditions: for pest or weed control at 63 g/ha / pest or weed control at 250 g/ha: Amaranthus retroflexus, post-emergence, 336 h, read-out: Post-emerge Herbicidal Activity AMARE
Summary of the method: as §1

[4] = test system: common ragweed (Ambrosia artemisizfolia L., AMBEL); experiment: as above; conditions: for phytotoxicity rating AMBEL: rating scale 0-100
Summary of the method: as §1

[5] = test system: redroot pigweed (Amaranthus retroflexus, AMARE); experiment: Pre-emerge test, greenhouse herbicide activity screening; conditions: for Pre-emerge Herbicidal Activity AMARE (phytotoxicity rating, scale 0-100): rated 14 days after application, 0 = no damage, 100 = complete death; for pest or weed control at 63 g/ha / pest or weed control at 250 g/ha: Amaranthus retroflexus, pre-emergence, 336 h, read-out: Pre-emerge Herbicidal Activity AMARE
Summary of the method: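 Compounds in acetone were track-sprayed at 15-1000 g ai/ha (187 l/ha) on sandy loam pots: pre-emerge one day after seeding, post-emerge at 2-3 leaf stage with 0.25% v/v non-ionic surfactant. Phytotoxicity was rated 14 days later on a 0 (no damage) to 100 (complete death) scale.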

[6] = test system: field corn (Zea mays L., var. Dekalb 535, CORN); experiment: Post-emerge test, crop safety; conditions: post-emerge, 14 days after application, rating scale 0-100
Summary of the method: (§2)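 Each test used a mechanized track sprayer delivering 187 l/ha of acetone solution at 15–1000 g ai/ha. Post-emerge foliage at 2–3 leaves was treated with added 0.25% v/v non-ionic surfactant and bottom-watered only. Injury was assessed on day 14, where 100 means total kill.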

[7] = test system: upland rice (Oryza sp., var. Tebonnet, RICE); experiment: Post-emerge test, crop safety; conditions: post-emerge, 14 days after application, rating scale 0-100
Summary of the method: as §2

[8] = test system: soybean (Glycine max L., var. Pella 86, SOY); experiment: Post-emerge test, crop safety; conditions: 14 days after application, rating scale 0-100
Summary of the method: as §2

[9] = test system: field corn (Zea mays L., var. Dekalb 535, CORN); experiment: Pre-emerge test, crop safety; conditions: crop damage rating 0-100, 14 days after application
Summary of the method: (§3)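 Sandy loam pots; pre-emerge: sown 1 d pre-spray, surface-watered after, then bottom-watered. Post-emerge: sown 8–21 d before, 2–3 leaf stage, + 0.25% v/v NIS, bottom-watered. Acetone, 187 l/ha track spray, 15–1000 g ai/ha. 0–100 injury score, day 14.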

[10] = test system: upland rice (Oryza sp., var. Tebonnet, RICE); experiment: Pre-emerge test, crop safety; conditions: crop damage rating 0-100, 14 days after application
Summary of the method: as §3

[11] = test system: soybean (Glycine max L., var. Pella 86, SOY); experiment: Pre-emerge test, crop safety; conditions: crop damage rating 0-100, 14 days after application
Summary of the method: as §3

[12] = 63 g ai/ha, phytotoxicity rating 0-100 (0 no damage, 100 complete death), 14 days after application
[13] = 250 g ai/ha, phytotoxicity rating 0-100 (0 no damage, 100 complete death), 14 days after application
[14] = 63 g ai/ha, phytotoxicity rating 0-100, 14 days after application
[15] = 250 g ai/ha, phytotoxicity rating 0-100, 14 days after application
[16] = post-emerge, 63 g ai/ha, 14 days after application
[17] = post-emerge, 250 g ai/ha, 14 days after application
[18] = post-emerge, 63 g ai/ha, 14 days after application, rating scale 0-100 (0 no damage, 100 complete death)
[19] = post-emerge, 250 g ai/ha, 14 days after application, rating scale 0-100
[20] = pre-emerge, rate 63 g ai/ha, phytotoxicity rating 0-100 at 14 days after application
[21] = pre-emerge, rate 250 g ai/ha, phytotoxicity rating 0-100 at 14 days after application
[22] = post-emerge, 63 g ai/ha, phytotoxicity rating 0-100 at 14 days after application
[23] = post-emerge, 250 g ai/ha, phytotoxicity rating 0-100 at 14 days after application

COc1c(Cl)cc(F)c(-n2c(=O)cc(C(F)(F)F)n(C)c2=O)c1N(C(C)=O)C(C)=O [Compound 2-2, 3-(4-chloro-2-diacetylamino-6-fluoro-3-methoxyphenyl)-1-methyl-6-trifluoromethyl-2,4(1H, 3H)-pyrimidinedione]
Pre-emerge Herbicidal Activity AMBEL (phytotoxicity rating, scale 0-100) ([1]; 63 g ai/ha, pre-emerge): 40
Pre-emerge Herbicidal Activity AMBEL (phytotoxicity rating, scale 0-100) ([1]; 250 g ai/ha, pre-emerge): 100
pest or weed control at 63 g/ha [2, 12]: 0%
pest or weed control at 250 g/ha [2, 13]: 30%
pest or weed control at 63 g/ha [3, 12]: 90%
pest or weed control at 250 g/ha [3, 13]: 100%
Post-emerge Herbicidal Activity AMBEL [4, 12]: 0
Post-emerge Herbicidal Activity AMBEL [4, 13]: 70
Pre-emerge Herbicidal Activity AMARE (phytotoxicity rating, scale 0-100) ([5]; 63 g ai/ha, pre-emerge): 100
Pre-emerge Herbicidal Activity AMARE (phytotoxicity rating, scale 0-100) ([5]; 250 g ai/ha, pre-emerge): 100

CNC(=O)N(C(=O)NC)c1c(OC)c(Cl)cc(F)c1-n1c(=O)cc(C(F)(F)F)n(C)c1=O [Compound 3-1, 3-[2-bis(methylaminocarbonyl)amino-4-chloro-6-fluoro-3-methoxyphenyl]-1-methyl-6-trifluoromethyl-2,4(1H, 3H)-pyrimidinedione]
Pre-emerge Herbicidal Activity AMBEL [1, 14]: 0
Pre-emerge Herbicidal Activity AMBEL [1, 15]: 0
phytotoxicity rating DIGSA [2, 16]: 0
phytotoxicity rating DIGSA [2, 17]: 0
phytotoxicity rating AMARE [3, 18]: 0
phytotoxicity rating AMARE [3, 19]: 60
phytotoxicity rating AMBEL [4, 16]: 0
phytotoxicity rating AMBEL [4, 17]: 0
pest or weed control at 63 g/ha [5, 14]: 0%
pest or weed control at 250 g/ha [5, 15]: 30%

COC(=O)Nc1c(OC)c(Cl)cc(F)c1-n1c(=O)cc(C(F)(F)F)n(C)c1=O [Compound 4-1, 3-(4chloro-6-fluoro-3-methoxy-2-methoxycarbonylaminophenyl)-1-methyl-6-trifluoromethyl-2,4(1H, 3H)-pyrimidinedione]
phytotoxicity rating DIGSA [2, 16]: 0
phytotoxicity rating DIGSA [2, 17]: 0
phytotoxicity rating AMARE [3, 18]: 50
phytotoxicity rating AMARE [3, 19]: 95
phytotoxicity rating AMBEL [4, 16]: 40
phytotoxicity rating AMBEL [4, 17]: 90
phytotoxicity rating CORN (crop damage) ([6]; 63 g ai/ha): 10
phytotoxicity rating CORN (crop damage) ([6]; 250 g ai/ha): 20
phytotoxicity rating RICE (crop damage) ([7]; 63 g ai/ha): 20
phytotoxicity rating RICE (crop damage) ([7]; 250 g ai/ha): 50
phytotoxicity rating SOY (crop damage) ([8]; 63 g ai/ha): 50
phytotoxicity rating SOY (crop damage) ([8]; 250 g ai/ha): 100
pest or weed control at 63 g/ha [5, 14]: 100%
pest or weed control at 250 g/ha [5, 15]: 100%
Pre-emerge Herbicidal Activity CORN ([9]; 63 g ai/ha): 10
Pre-emerge Herbicidal Activity CORN ([9]; 250 g ai/ha): 80
Pre-emerge Herbicidal Activity RICE ([10]; 63 g ai/ha): 50
Pre-emerge Herbicidal Activity RICE ([10]; 250 g ai/ha): 95
Pre-emerge Herbicidal Activity SOY ([11]; 63 g ai/ha): 70
Pre-emerge Herbicidal Activity SOY ([11]; 250 g ai/ha): 100

COc1c(Cl)cc(F)c(-c2nn(C)c(C(F)(F)F)c2Cl)c1N [Compound 7-2, 4-chloro-3-(2-amino-4-chloro-6-fluoro3-metoxyphenyl)-1-methyl-5-trifluoromethyl-1H-pyrazole]
Pre-emerge Herbicidal Activity AMBEL [1, 20]: 80
Pre-emerge Herbicidal Activity AMBEL [1, 21]: 100
pest or weed control at 63 g/ha [2, 22]: 20%
pest or weed control at 250 g/ha [2, 23]: 70%
pest or weed control at 63 g/ha [3, 22]: 100%
pest or weed control at 250 g/ha [3, 23]: 100%
Post-emerge Herbicidal Activity AMBEL [4, 22]: 0
Post-emerge Herbicidal Activity AMBEL [4, 23]: 10
pest or weed control at 63 g/ha [5, 20]: 100%
pest or weed control at 250 g/ha [5, 21]: 100%
